From PubChem BioAssay AID806 (SRMLSC, 2007)
Activity calls are given as the source filed them. The rule behind the calls is not given here.

System: virus-infected cells, CPE inhibition, dose response
Test: PubChem AID 806
Details: for EC90: measured here: EC90 CPE inhibition; for CC50: measured here: cytotoxicity, cell viability IC50

Structure (SMILES) | EC50 | EC90 | CC50
CCC(=O)N1CCn2c1nc1ccccc12 | > 60 µM (inactive) | > 60 µM | > 60 µM
CCCNC(=O)c1noc2c1CCc1ccccc1-2 | > 60 µM (inactive) | > 60 µM | > 60 µM
CCSc1nnc(-c2ccncc2)o1 | > 60 µM (inactive) | > 60 µM | > 60 µM
O=C(CN1CCN(c2ncccn2)CC1)NCCC1=CCCCC1 | – | > 60 µM | > 60 µM
COc1cccc(Nc2ncnc3c2cnn3-c2cccc(C)c2)c1 | > 60 µM (inactive) | > 60 µM | > 60 µM
CCOC(=O)/C=C1\SCC(=O)N1CC(=O)NC(C)C | > 60 µM (inactive) | > 60 µM | > 60 µM
O=C(NCc1cccnc1)C1CCCCN1S(=O)(=O)c1ccc(F)cc1 (stereo unspecified) | > 60 µM (inactive) | > 60 µM | > 60 µM
Cc1ccc(NC(=O)c2noc3c2CCc2ccccc2-3)cc1 | > 60 µM (inactive) | > 60 µM | > 60 µM
COc1ccc(C2=NOC(C(=O)Nc3cc(C)nn3-c3ccccc3)C2)cc1OC (stereo unspecified) | > 60 µM (inactive) | > 60 µM | > 60 µM
O=C1NCCCc2c1oc1cc(Br)c(O)c(Br)c21 | > 60 µM (inactive) | > 60 µM | > 60 µM
O=C(CCS(=O)(=O)c1cccc2nsnc12)NC1CCCCCC1 | > 60 µM (inactive) | > 60 µM | > 60 µM
O=C(O)c1cccc(Nc2ncnc3c2cnn3-c2ccccc2)c1 | > 60 µM (inactive) | > 60 µM | > 60 µM
CCOC(=O)CN(C(=O)Cn1nnc2ccccc21)C(C(=O)NCCOC)c1ccccc1C (stereo unspecified) | > 60 µM (inactive) | > 60 µM | > 60 µM
COc1ccc(NC(=O)C2CCCCN2S(=O)(=O)c2ccc(F)cc2)cc1 (stereo unspecified) | > 60 µM (inactive) | > 60 µM | > 60 µM
O=Nc1c(O)n(Cc2ccc(Cl)cc2)c2ccccc12 | > 60 µM (inactive) | > 60 µM | > 60 µM
CCCCOc1ccc(C(=O)C(CN2CCOCC2)c2ccccc2)cc1 (stereo unspecified) | > 60 µM (inactive) | > 60 µM | > 60 µM
O=C(NC1CCS(=O)(=O)C1)C1CCCCN1S(=O)(=O)c1ccc(Cl)cc1 (stereo unspecified) | > 60 µM (inactive) | > 60 µM | > 60 µM
Cc1ccc(C)c(Cc2c(C)nc3c(C(=O)N4CCOCC4)cnn3c2C)c1 | > 60 µM (inactive) | > 60 µM | > 60 µM
O=C(c1cccs1)N1CCn2c1nc1ccccc12 | > 60 µM (inactive) | > 60 µM | > 60 µM
CCN(c1ccccc1)c1ncnc2c1cnn2-c1ccccc1 | > 60 µM (inactive) | > 60 µM | > 60 µM
CCOC(=O)c1cnn(-c2ccccc2)c1-n1cccc1C(=O)C(=O)Nc1ccccc1C(F)(F)F | > 60 µM (inactive) | > 60 µM | > 60 µM
O=C(c1cc(-c2ccc(Cl)cc2)n(-c2ccc(Cl)cc2)n1)N1CCOCC1 | > 60 µM (inactive) | > 60 µM | 4.34 µM
CC(C)CNC(=O)c1cccc(NC(=O)c2ccc(NC(=O)c3ccco3)cc2)c1 | > 60 µM (inactive) | > 60 µM | > 60 µM

Structure (SMILES) | EC50 | EC90 | CC50
COc1ccccc1Cn1c(=O)[nH]c2cccnc21 | > 60 µM (inactive) | > 60 µM | > 60 µM
Cc1cc(C(=O)NCc2ccccc2)c(=O)[nH]c1C | > 60 µM (inactive) | > 60 µM | > 60 µM
Cc1ccc2c(C)c(C(=O)Nc3cccnc3)oc2c1 | > 60 µM (inactive) | > 60 µM | > 60 µM
Cc1nc2c(C(=O)N3CCOCC3)cnn2c(C)c1Cc1ccc(Cl)cc1 | > 60 µM (inactive) | > 60 µM | > 60 µM
CN1c2ccsc2C(O)=C(C(=O)Nc2ccccc2)S1(=O)=O | > 60 µM (inactive) | > 60 µM | > 60 µM
CC1CCCN(c2ccc(C(=O)NCc3cccs3)cn2)C1 (stereo unspecified) | > 60 µM (inactive) | > 60 µM | > 60 µM
CC(C)(C)c1ccc(S(=O)(=O)N2CCCCC2C(=O)NCc2ccccn2)cc1 (stereo unspecified) | > 60 µM (inactive) | > 60 µM | > 60 µM
O=C(Nc1ccccc1)c1cc2ccccc2o1 | > 60 µM (inactive) | > 60 µM | > 60 µM
CCCCN(C(=O)Cn1nnc2ccccc21)C(C(=O)NCc1ccco1)c1ccncc1 (stereo unspecified) | > 60 µM (inactive) | > 60 µM | > 60 µM
COc1ccc2c(c1)CCc1c(C(=O)N3CCCC3)noc1-2 | > 60 µM (inactive) | > 60 µM | > 60 µM
O=C(Nc1ccncc1)c1cc2ccccc2o1 | > 60 µM (inactive) | > 60 µM | > 60 µM
COc1ccc(NC(=O)c2cc3ccccc3o2)cc1 | > 60 µM (inactive) | > 60 µM | > 60 µM
CC1(C)Cc2c(c(N3CCOCC3)nc3sc4c(=O)[nH]cnc4c23)CS1 | > 60 µM (inactive) | > 60 µM | > 60 µM
O=C(Nc1cccc(O)c1)c1noc2c1CCc1ccccc1-2 | > 60 µM (inactive) | > 60 µM | > 60 µM
COc1ccccc1Cn1c(=O)c2ccccc2n2c(SCC(=O)N3CCCCC3)nnc12 | > 60 µM (inactive) | > 60 µM | > 60 µM
Cn1nc(C(=O)Nc2c(-c3ccccc3)nc3sccn23)c2ccccc2c1=O | > 60 µM (inactive) | > 60 µM | > 60 µM
COc1ccc(S(=O)(=O)Nc2ccc(C)cc2)cc1N(C)S(=O)(=O)c1ccc(Cl)cc1 | > 60 µM (inactive) | > 60 µM | > 60 µM
CC1CC(=O)C2=C(C1)Nc1ccccc1N(C(=O)COc1ccccc1)C2c1ccco1 (stereo unspecified) | > 60 µM (inactive) | > 60 µM | > 60 µM
Cc1nc2ccc(NC(=O)C3CCN(S(=O)(=O)c4cccs4)CC3)cc2s1 | > 60 µM (inactive) | > 60 µM | > 60 µM
CC(C)(C)c1ccc(OCCn2ccccc2=O)cc1 | > 60 µM (inactive) | > 60 µM | 40.9 µM
CC(C)c1cccc(C(C)C)c1OCCn1ccnc1 | > 60 µM (inactive) | > 60 µM | > 60 µM
CCc1ccc(NC(=O)CCS(=O)(=O)c2cccc3nsnc23)cc1 | > 60 µM (inactive) | > 60 µM | > 60 µM
O=C(CSc1ccc2nnc(-c3ccc(F)cc3)n2n1)NCc1ccco1 | > 60 µM (inactive) | > 60 µM | > 60 µM

Structure (SMILES) | EC50 | EC90 | CC50
CC1(C)Cc2c(c(N3CCOCC3)nc3sc4c(NN)ncnc4c23)CS1 | > 60 µM (inactive) | > 60 µM | 4.49 µM
COc1ccc(C2NC(=O)NC3=C2CCc2ccccc23)cc1 (stereo unspecified) | 3.6 µM | > 60 µM | > 60 µM
COc1cccc(CNC(=O)c2ccc(S(=O)(=O)N3CCCC3)cc2)c1 | > 60 µM (inactive) | > 60 µM | > 60 µM
CCOc1ccccc1NC(=O)c1ccc(NC(=O)c2ccco2)cc1 | > 60 µM (inactive) | > 60 µM | > 60 µM
COc1ccc(-c2nnc3ccc(SCC(=O)NCc4ccco4)nn23)cc1OC | > 60 µM (inactive) | > 60 µM | > 60 µM
CC(C)(C)NC(=O)c1cccc(NC(=O)c2ccc(NC(=O)c3ccco3)cc2)c1 | > 60 µM (inactive) | > 60 µM | > 60 µM
CCOCCCNC(=O)C1CCCCN1S(=O)(=O)c1ccc(F)cc1 (stereo unspecified) | > 60 µM (inactive) | > 60 µM | > 60 µM
O=C(c1ccco1)N1CCn2c1nc1ccccc12 | > 60 µM (inactive) | > 60 µM | > 60 µM
N#CCCN1CCn2c1nc1ccccc12 | > 60 µM (inactive) | > 60 µM | > 60 µM
O=C(c1noc2c1CCc1ccccc1-2)N1CCOCC1 | > 60 µM (inactive) | > 60 µM | > 60 µM
COc1ccccc1NC(=O)CS(=O)(=O)c1cccc2nsnc12 | > 60 µM (inactive) | > 60 µM | > 60 µM
COc1ccc(NC(=O)C2CCCCN2S(=O)(=O)c2ccc(F)cc2)c(OC)c1 (stereo unspecified) | > 60 µM (inactive) | > 60 µM | > 60 µM
COc1ccc(OC)c(Nc2ncnc3c2cnn3-c2cccc(C)c2)c1 | > 60 µM (inactive) | > 60 µM | > 60 µM
COc1ccc(OC)c(-n2c(SC)nnc2-c2c[nH]c3ccccc23)c1 | > 60 µM (inactive) | > 60 µM | > 60 µM
COCCCNC(=O)C1CCCCN1S(=O)(=O)c1ccc(F)cc1 (stereo unspecified) | > 60 µM (inactive) | > 60 µM | > 60 µM
O=C1c2ccccc2-c2onc3ccc(Oc4ccccc4)c1c23 | > 60 µM (inactive) | > 60 µM | 17.7 µM
Cc1cccc(C)c1NC(=O)CCS(=O)(=O)c1cccc2nsnc12 | > 60 µM (inactive) | > 60 µM | > 60 µM
CN(C)c1cccc(C(=O)Nc2ccc3nc4n(c(=O)c3c2)CCCCC4)c1 | 17.4 µM | > 60 µM | > 60 µM
CCN(CC)S(=O)(=O)c1ccc(C(=O)NCc2ccc(C)cc2)cc1 | > 60 µM (inactive) | > 60 µM | > 60 µM
O=C(CSc1ccc2nnc(-c3ccccn3)n2n1)NCc1ccco1 | > 60 µM (inactive) | > 60 µM | > 60 µM
COC(=O)CSc1nnc(-c2cccnc2)o1 | > 60 µM (inactive) | > 60 µM | > 60 µM
CCCOc1ccc(C(=O)C(CN2CCOCC2)c2ccccc2)cc1 (stereo unspecified) | > 60 µM (inactive) | > 60 µM | > 60 µM
CCC(C)(C)NC(=O)C(c1cccnc1)N(CCOC)C(=O)Cn1nnc2ccccc21 (stereo unspecified) | > 60 µM (inactive) | > 60 µM | > 60 µM
